Here are results for one compound from patent US20160038519A1, “ADMINISTRATION OF KARENITECIN FOR THE TREATMENT OF ADVANCED OVARIAN CANCER, INCLUDING CHEMOTHERAPY-RESISTANT AND/OR THE MUCINOUS ADENOCARCINOMA SUB-TYPES” (BioNumerik Pharmaceuticals, Inc., priority 2014, published 2016).

Entries after “also recorded” stand apart in the source; their conditions may differ. Where two headings read alike, the source gives them in different places. Some results are limits rather than exact numbers.

The test system of one data set is Fischer rats. The note with it: rat, in vivo, iv.
The test system of another data set is JHOM2B Cell Line. The experiment in a line: SRB cytotoxicity assay, JHOM2B. The note with it: Homo sapiens. Format: cell-based, human. As for the experimental part: In vitro studies were conducted in human mucinous ovarian cancer cell lines including JHOM2B, OMC3, and COV644. In one series of experiments, the dose response curves for BNP1350 (also known as Karenitecin), SN-38 (Irinotecan), and Topotecan were obtained and IC50 values were determined. In a second series of experiments, the effect of BNP7787 (2,2′-dithio-bis-ethane sulfonate; Tavocept) on BNP1350-induced cytotoxicity at selected BNP1350 concentrations was examined.
The JHOM2B and OMC3 cell lines were purchased from Riken Cell Bank (Japan). The COV644 cell line was purchased from SigmaAldrich. Cells were maintained as monolayered cultures in T-75 flasks and then seeded to microtiter plate wells for experiments. Population doubling-times for these three cell lines were long (i.e., exceeding 40 hours, and for some of the cell lines approaching 96 hours); therefore, the Applicants conducted initial pilot experiments and determined optimal seeding density to obtain A570 values in untreated controls that would fall within the linear range of the SRB assay after seven (7) total days of cell growth. JHOM2B cells were cultured in DMEM:F12 (1:1)+0.1 mM non-essential amino acids (NEAA)+10% FBS and were seeded at 6,000 cells per well. OMC3 cells were cultured in HamF12+10% FBS and were seeded at 8,000 cells per well. COV644 cells were cultured in DMEM+2 mM glutamine+10% FBS and were seeded at 6,000 cells per well.
The cells were manipulated in a Microzone laminar flow hood traditionally used for maintaining aseptic environments around automated instrumentation such as microplate robots, and the like. Cells were grown and maintained at 37° C. in a humidified atmosphere containing 5% CO2 in a water jacketed cell culture incubator (Forma Scientific). Cells were counted using a ViCell counter (Beckman-Coulter). An automated plate washer/stacker (ELx405/BioStak from BioTek Instruments) and a microplate reader (SpectraMax Plus from Molecular Devices) were used for conducting the SRB assay and determining A570 values for wells in the plates and the percentage of control values. Prior to SRB assays, cell viability was monitored by evaluation of microtiter plate wells. Dead cells detach and float while living cells remain attached to the bottom of the cell well.
SN-38 (Irinotecan; Sigma H0165, lot MKBQ4981) and Topotecan (Sigma T2705, lot 052M4728V) were purchased from SigmaAldrich. BNP1350 (lot KN-C192-135) and BNP7787 (lot 205001) were synthesized at BioNumerik Pharmaceuticals, Inc. (San Antonio, Tex.). BNP1350, SN38, and Topotecan were prepared as 2.5, 2.5, and 25 mM stocks in DMSO (ATCC, cell culture grade).
The sulforhodamine B (SRB) cytotoxicity assay was used to assess cell survival. Briefly, after the medium was decanted from individual plate wells, trichloroacetic acid (100 μL of 10.0 percent solution) was added to each well, and the plates were incubated at 4° C. for 1 hour. The plates were washed five times with water using an automated microplate washer (Model ELx405, Bio-Tek Instruments), SRB solution (100 μL of 0.4% SRB dissolved in 1.0 percent acetic acid) was added, and plates remained at room temperature for 15 minutes. The plates were then washed five times using acetic acid (1.0 percent), air dried, and bound dye was solubilized in Tris base (150 μL, 10 mM). Plates were agitated (gently) for 5 minutes and the absorbance values of the SRB dye-protein adduct at 570 nanometers (A570) were determined using an automated microtiter plate reader (SpectraMax Plus, Molecular Devices). IC50 values were extrapolated from dose response curves of the data using OriginLab Software.
On the technique in general: Sulforhodamine B stains cellular protein and so reports cell mass.

The next data set has as its system beagle dogs. The note with it: dog, in vivo, iv.
In a further data set the test system is advanced ovarian cancer. Nature of the data set: Phase II study in advanced ovarian cancer after failed prior treatments. The class given is in vivo, human.
Data set [1] in a line: Phase I clinical studies of intravenous Karenitecin. The class given is in vivo, human. As for the experimental part: Results from three Phase I studies indicate that Karenitecin can be safely administered to subjects at the dose level of 1.0 mg/m^2/day i.v. over a one hour period of time for 5 consecutive days in a 3-week treatment cycle. […] Any gastrointestinal toxicity is generally ≦grade 2 and is not dose-limiting.
Intravenous administration of Karenitecin has been evaluated in three Phase I clinical studies in subjects with the following cancer types: (i) advanced solid tumors (adult subjects) (see, e.g., Schilsky, R. L., Hausheer, F. H., et al., Phase I trial of karenitecin administered intravenously daily for five consecutive days in subjects with advanced solid tumors using accelerated dose titration [abstract]. ASCO Abstract 758 (2000)); (ii) refractory or recurrent solid tumors (pediatric subjects); and (iii) recurrent malignant glioma (adult subjects). Intravenous administration of Karenitecin has also been evaluated in four Phase 2 clinical studies in adult subjects with the following cancer types: (i) primary malignant glioma; (ii) third-line treatment of persistent or recurrent epithelial ovarian or primary peritoneal carcinoma; (iii) malignant melanoma (see, e.g., Hausheer, F. H., et al., Phase II trial of Karenitecin (BNP1350) in malignant melanoma: clinical and translational study [abstract]. ASCO Abstract 7554 (2004); and (iv) relapsed or refractory non-small cell lung cancer (see, e.g., Miller, A. A., et al., MR for the Cancer and Leukemia Group B. Phase II trial of karenitecin in subjects with relapsed or refractory non-small cell lung cancer (CALGB 30004) Lung Cancer 48:399-407 (2005)).

For data set [2], the system named is panel of over twenty (20) human cancer cell lines. Nature of the data set: In vitro studies on a panel of over twenty human cancer cell lines. Format: cell-based.
Data set [3] in a line: Lactone stability in humans. Format: in vivo, human.

In general, IC50 refers to the concentration needed to halve the response being measured. Take `CC[C@@]1(O)C(=O)OCc2c1cc1n(c2=O)Cc2c-1nc1ccccc1c2CC[Si](C)(C)C` [Karenitecin, (4S)-4-ethyl-4-hydroxy-11-[2-(trimethylsilyl)ethyl]-1H-pyrano[3′:4′:6,7]indolizino[1,2-b]quinoline-3,14(4H,12H)-dione]: the Toxicities observed result in the data set with Fischer rats and in the data set on beagle dogs was “reversible myelosuppression (predominantly neutropenia)” in each case. The 50% inhibitory concentration (IC50) was 69.5 nM with JHOM2B Cell Line (2 hour drug exposure, average of Test 1 and Test 2, read-out: IC50, Average); 61 ± 4 nM in the data set on JHOM2B Cell Line (2 hour drug exposure, read-out: IC50, Test 1 (2 replicate plates)); 78 ± 9 nM in the data set on JHOM2B Cell Line (2 hour drug exposure, read-out: IC50, Test 2 (3 replicate plates)); 69.5 nM in the data set with JHOM2B Cell Line (read-out: IC50 values). Moreover, the “Time to Progression (TTP) compared with historical results reported with Topotecan” value in the data set on advanced ovarian cancer is recorded as “prolonged”. The compound also gave a Gastrointestinal toxicity grade in data set [1] (i.v. 1.0 mg/m^2/day x5, 3-week cycle, not dose-limiting) of at most 2 grade. Also, the Dose-limiting toxicity entry in data set [1] (i.v., Phase I clinical studies) was “non-cumulative, reversible myelosuppression; also recorded: reversible and non-cumulative neutropenia and thrombocytopenia”. Moreover, the “Hypersensitivity reactions reported by subjects” value in data set [1] (to date) is “no hypersensitivity reactions”. The “Antitumor potency compared with Topotecan or SN-38” value in data set [2] was “significantly more potent”. Further, in data set [3], the Lactone stability entry is recorded as “approximately 85%”.
